Read-outs that look alike come from different tables or passages of the source.
Assays:
[1] = biological target: CB1 receptor (Rattus norvegicus, UniProt P20272); test: biochemical; format: binding; details: for Ki: 1 nM [3H] CP 55,940, rat whole brain P2 membranes, 30° C. for 1 hr
Experimental: (§1) Male ICR mice (25-32 g), purchased from Harlan (Dublin, Va.), were housed in groups of five. All animals were kept in a temperature-controlled (20-22° C.) environment with a 12-hour light-dark cycle (lights on at 7 a.m.). Separate mice were used for testing each drug dose in the in vivo behavioral procedures. The mice were maintained on a […] light: dark cycle, and received food and water ad libitum. Brain tissue for binding studies was obtained from male Sprague-Dawley rats (150-200 g) purchased from Harlan Laboratories (Dublin, Va.).
All assays, as described briefly below, were performed in triplicate, and the results represent the combined data from three to six individual experiments. Following decapitation and rapid removal of the brain, whole brain was homogenized and centrifuged. The resulting pellet was termed P1. The supernatant was saved and combined with the two subsequent supernatants obtained from washing of the P1 pellet. The combined supernatant fractions were centrifuged, resulting in the P2 pellet. After further incubation and centrifuging, this pellet was resuspended in assay buffer to a protein concentration of approximately 2 mg/ml. The membrane preparation was quickly frozen in a bath solution of dry ice and 2-methylbutane (Sigma Chemical Co., St. Louis, Mo.), then stored at −80° C. for no more than 2 weeks. […] Binding was initiated by the addition of 150 μg of P2 membrane to test tubes containing 1 nM of [3H] […] Following incubation at 30° C. for 1 hr, binding was terminated by addition of ice-cold buffer and vacuum filtration through pretreated filters in a 12-well sampling manifold (Millipore, Bedford, Mass.). After washing, filters were placed into plastic scintillation vials (Packard, Downer Grove, Ill.) and shaken. The quantity of radioactivity present was determined by liquid scintillation spectrometry.

[2] = system: mice; test: Spontaneous (locomotor) activity in mice, compound alone (agonism test); format: in vivo; details: for ED50: mice, i.v.; for Max % inhibit of spontaneous locomotor activity, Compound Alone (in words: stimulation instead of inhibition): doses in mg/kg; for change in vivo at 30 mg/kg: at 30 mg/kg i.v.; for Max stim of spontaneous locomotor activity, Compound Alone (in words): at the dose(s) [mg/kg] given in parentheses in the cell
Experimental: as §1
(§2) Measurement of spontaneous activity in mice occurred in standard activity chambers interfaced with a Digiscan Animal Activity Monitor (Omnitech Electronics, Inc., Columbus, Ohio). A standard tail-flick apparatus (described by Dewey et al., 1970) and a digital thermometer (Fisher Scientific, Pittsburgh, Pa.) were used to measure antinociception and rectal temperature, respectively.
(§3) All drugs were administered to the mice intravenously (i.v.) in the tail vein at a volume of 0.1 ml/10 g.
(§4) Maximum latency of 10 sec was used.

[3] = system: mice; test: Tail-flick antinociception in mice, compound alone (agonism test); format: in vivo; details: Mus musculus, iv
Experimental: as §1, §2, §3, §4

[4] = system: mice; test: Rectal temperature (hypothermia) in mice, compound alone (agonism test); format: in vivo; details: Mus musculus, iv
Experimental: as §1, §2, §3, §4

[5] = system: mice; test: Rectal temperature in mice, compound in combination with 3 mg/kg Δ^9-THC (antagonism test); format: in vivo; details: at 10 mg/kg i.v.
Experimental: as §1, §2, §3, §4

[6] = system: mice; test: Spontaneous activity in mice, compound in combination with 3 mg/kg Δ^9-THC (antagonism test); format: in vivo; details: for Max stim of spontaneous locomotor activity, Compound with 3 mg/kg Δ^9-THC: at 30 mg/kg i.v.; for SA: maximum % antagonism of 3 mg/kg Δ^9-THC: analog 10 min before Δ^9-THC
Experimental: as §1, §2, §3, §4

[7] = system: mice; test: Tail-flick antinociception in mice, compound in combination with 3 mg/kg Δ^9-THC (antagonism test); format: in vivo
Experimental: as §1, §2, §3, §4

[8] = Mus musculus, iv, read-out: SA: > dose, 50% activity not achieved at this highest dose tested
[9] = read-out: TF: > dose, 50% activity not achieved at this highest dose tested
[10] = read-out: RT: > dose, 50% activity not achieved at this highest dose tested
[11] = Mus musculus, iv, read-out: Max stim of spontaneous locomotor activity, Compound Alone
[12] = at the dose(s) [mg/kg] given in parentheses in the cell
[13] = Mus musculus, iv, at 10 mg/kg i.v., read-out: Max % inhibit of spontaneous locomotor activity, Compound Alone

Sequence of CB1 receptor (P20272 whole entry): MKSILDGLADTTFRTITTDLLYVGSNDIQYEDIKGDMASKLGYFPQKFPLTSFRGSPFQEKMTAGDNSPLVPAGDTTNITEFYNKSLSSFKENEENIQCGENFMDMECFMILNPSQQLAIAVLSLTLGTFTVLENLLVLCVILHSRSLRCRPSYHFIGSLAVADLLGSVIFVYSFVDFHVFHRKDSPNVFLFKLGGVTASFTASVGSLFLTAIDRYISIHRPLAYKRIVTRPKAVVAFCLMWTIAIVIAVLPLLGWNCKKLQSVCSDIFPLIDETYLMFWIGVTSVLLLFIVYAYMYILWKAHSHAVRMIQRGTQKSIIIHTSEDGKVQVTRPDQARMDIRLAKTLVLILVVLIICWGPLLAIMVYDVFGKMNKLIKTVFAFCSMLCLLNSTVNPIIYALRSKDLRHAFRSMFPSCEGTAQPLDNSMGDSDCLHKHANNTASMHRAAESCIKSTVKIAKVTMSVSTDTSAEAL

## Cc1c(COCc2cccc3ccccc23)nn(-c2ccc(Cl)cc2Cl)c1-c1ccc(Cl)cc1 [Compound O-852]
[1]; Ki (nM)
  Ki: 78 ± 10 nM
[2]; Mus musculus, iv, at 1 mg/kg i.v., read-out: Max stim of spontaneous locomotor activity, Compound Alone
  change in vivo at 1 mg/kg: 52%
[2]; [8]
  ED50: > 10 mg/kg
[2]; compound alone, dose not given (see Table 5)
  stimulation of locomotor activity: 52%
[2]
  Max % inhibit of spontaneous locomotor activity, Compound Alone (in words: stimulation instead of inhibition): stim at 1, 3 & 10
[3]; [9]
  ED50: > 10 mg/kg
[4]; [10]
  ED50: > 10 mg/kg

## CCCCc1ccc(-n2nc(C(=O)NN3CCCCC3)c(C)c2-c2ccc(Cl)cc2)cc1 [Compound O-1254]
[5]
  RT: maximum % antagonism of 3 mg/kg Δ^9-THC: 31% (10)
[1]; Ki (nM)
  Ki: 226 ± 4 nM
[2]; [11]
  change in vivo at 30 mg/kg: 29%
[2]; [8]
  ED50: > 30 mg/kg
[2]
  Max % inhibit of spontaneous locomotor activity, Compound Alone (in words: stimulation instead of inhibition): stim at 3, 10 & 30
[6]
  Max stim of spontaneous locomotor activity, Compound with 3 mg/kg Δ^9-THC: 13% (30)
[6]; [12]
  SA: maximum % antagonism of 3 mg/kg Δ^9-THC (in words): stimulation
[6]; doses in mg/kg
  Max % inhibit of spontaneous locomotor activity, Compound with 3 mg/kg Δ^9-THC (in words): stim at 10
[3]; [9]
  ED50: > 30 mg/kg
[7]; at 30 mg/kg i.v.
  % MPE: maximum % antagonism of 3 mg/kg Δ^9-THC: 52% (30)
[4]; [10]
  ED50: > 30 mg/kg

## CCCCCc1ccc(-n2nc(C(=O)NN3CCCCC3)c(C)c2-c2ccc(Cl)cc2)cc1 [Compound O-1255]
[5]
  RT: maximum % antagonism of 3 mg/kg Δ^9-THC: 14% (10)
[1]; read-out: Ki
  Ki: 433 ± 103 nM
[1]; compared to O-1254
  CB1 binding affinity, fold less than the n-butyl compound: ~2 fold
[2]; [13]
  inhibition in vivo at 10 mg/kg: 20%
[2]; [8]
  ED50: > 30 mg/kg
[2]
  Max stim of spontaneous locomotor activity, Compound Alone (in words): None (3, 10 & 30)
[6]; at 10 mg/kg i.v.
  Max % inhibit of spontaneous locomotor activity, Compound with 3 mg/kg Δ^9-THC: 65% (10)
  SA: maximum % antagonism of 3 mg/kg Δ^9-THC: 0% (10)
[6]; [12]
  Max stim of spontaneous locomotor activity, Compound with 3 mg/kg Δ^9-THC (in words): None (10)
[3]; [9]
  ED50: > 30 mg/kg
[7]; at 10 mg/kg i.v.
  % MPE: maximum % antagonism of 3 mg/kg Δ^9-THC: 13% (10)
[4]; [10]
  ED50: > 30 mg/kg

## Cc1c(C(=O)NN2CCCCC2)nn(-c2ccccc2)c1-c1ccc(Cl)cc1 [Compound O-1300]
[1]; Ki (nM)
  Ki: 150 ± 20 nM
[1]; compared to SR 141716A
  CB1 binding affinity, fold less than SR 141716A: 24 fold
[2]; [11]
  change in vivo at 30 mg/kg: 54%
[2]; [8]
  ED50: > 30 mg/kg
[2]
  Max % inhibit of spontaneous locomotor activity, Compound Alone (in words: stimulation instead of inhibition): stim at 30
[3]; [9]
  ED50: > 30 mg/kg
[4]; [10]
  ED50: > 30 mg/kg

## CCCCCc1ccc(-c2c(C)c(C(=O)NN3CCCCC3)nn2-c2ccc(Cl)cc2Cl)cc1 [Compound O-1302, N-(Piperidin-1-yl)-1-(2,4-dichlorophenyl)-4-methyl-5-(4-pentylphenyl)-1H-pyrazole-3-carboxamide]
[1]; Ki (nM)
  Ki: 2.1 ± 0.08 nM
[1]; compared to SR 141716A
  CB1 receptor binding affinity, fold greater than SR 141716A: approximately 3 fold
[2]; Mus musculus, iv, at 3 mg/kg i.v., read-out: Max % inhibit of spontaneous locomotor activity, Compound Alone
  inhibition in vivo at 3 mg/kg: 26%
[2]; Mus musculus, iv, at 10 mg/kg i.v., read-out: Max stim of spontaneous locomotor activity, Compound Alone
  change in vivo at 10 mg/kg: 2%
[2]; [8]
  ED50: > 30 mg/kg
[6]; at 0.3 mg/kg i.v.
  Max % inhibit of spontaneous locomotor activity, Compound with 3 mg/kg Δ^9-THC: 74% (0.3)
[6]; at 1 mg/kg i.v.
  SA: maximum % antagonism of 3 mg/kg Δ^9-THC: 91% (1)
[6]
  Max stim of spontaneous locomotor activity, Compound with 3 mg/kg Δ^9-THC: 107% (30)
[3]; [9]
  ED50: > 30 mg/kg
[4]; [10]
  ED50: > 30 mg/kg

## Cc1c(C(=O)NCCF)nn(-c2ccc(Cl)cc2Cl)c1-c1ccc(Cl)cc1 [Compound O-1398, N-(2-fluoroethyl)-5-(4-chlorophenyl)-1-(2,4-dichlorophenyl)-4-methyl-1H-pyrazol-3-carboxamide]
[1]; read-out: Ki
  Ki: 852 ± 175 nM
[1]; compared to O-1269
  CB1 binding affinity, fold decrease on shortening the n-pentyl amide: 27 fold
[1]; compared to the n-propyl compound O-1399
  CB1 binding affinity, further fold reduction: 5 fold
[2]; [13]
  inhibition in vivo at 10 mg/kg: 97%
[2]; Mus musculus, iv, 95% confidence limits in parentheses, * = estimated ED50, dose-effect curve not linear, read-out: SA (suppression of spontaneous activity) ED50
  ED50: 7 µmol/kg
[2]
  Max stim of spontaneous locomotor activity, Compound Alone (in words): None (3, 10 & 30)
[3]; 20 min, i.v., 20 min post-injection, 95% confidence limits in parentheses, * = estimated ED50, dose-effect curve not linear, read-out: TF (tail flick, % MPE) ED50
  ED50: 13 µmol/kg
[4]; 0.5 h, i.v., 30 min post-injection, 95% confidence limits in parentheses, read-out: RT (rectal temperature) ED50
  ED50: 8 µmol/kg

Source: US6509367B1 (priority 2001, dated 2003)
